According to patent US20090264483A1, “METHODS OF USING PPAR-gamma AGONISTS AND CASPASE-DEPENDENT CHEMOTHERAPEUTIC AGENTS FOR THE TREATMENT OF CANCER” (CEDARS-SINAI MEDICAL CENTER, priority 2006, published 2009):
d = 2'-deoxy (DNA); r = 2'-OH (RNA)

Columns and labels:
Type in all cases: cell-based, human
[1] = tested on: U-87MG cells; assay: Cell viability assay (Ann/PI staining, FACS) with VP16 or Taxol; conditions: for proliferation of cells in the control group (no TG or PTPI): 5-day cell cultures, U-87MG (not shown)
Description: (§1) Treatment of cells with TG, GW, PTPI, and/or SHPI for 24 h was followed by treatment with rTRAIL, VP16 or Taxol, and all the cells, including cells that had not adhered, were harvested after 24 h (48 h). An annexin V-fluorescein isothiocyanate apoptosis detection kit I (Pharmingen) was used for viability assay of the cells. Cells were stained with annexin V-fluorescein isothiocyanate (Ann) and propidium iodide (PI) according to the manufacturer's protocol and were analyzed by FACS (Pharmingen). Cells that stained negative for both Ann and PI were defined as viable cells for viability assay.
(§2) Based on this hypothesis, a determination was sought whether TG enhances the cytotoxic activities of etoposide (VP16) and paclitaxel (Taxol), which are known to involve activation of caspase-2, -8, -9, and -10 during their apoptosis induction (Lin et al. (2004) J. Biol. Chem. 279, 40755-40761.; Perkins et al. (2000) Cancer Res. 60, 1645-1653.; Park et al. (2004) J. Biol. Chem. 279, 51057-51067.). To confirm this, treatment of U-87MG with TG and/or PTPI was followed by treatment with VP16 (0.01-10 μM) or Taxol (0.005-5 μM). The cells were then subjected to cell viability (FIGS. 7, A and B) and caspase activity assays (FIGS. 7, C and D).

[2] = tested on: STAT3, pY705-STAT3, FLIP, Bcl-2, Bax, pS392-p53, PTP1B, SHP-1; assay: Western blot of glioma cell protein extracts
Text: Rabbit polyclonal Abs against DR4, DR5, and PPARγ were obtained from Cayman Chemical. Mouse monoclonal Abs against STAT3, phosphotyrosine 705 STAT3 (pY705-STAT3), which is an activated form of STAT3, Bax, and Bcl-2 were obtained from Pharmingen. Rabbit polyclonal Abs against p53 and phosphor-Ser-392-p53 (pS392-p53) were obtained from Cell Signaling Technology (Beverly, Mass.). Mouse monoclonal Abs against PTP1B (PTPase1B; AE4-2J) and Src homology 2-containing PTP-1 (SHP1; 1SH01) and rabbit polyclonal Ab against FLIP were obtained from Calbiochem. Mouse monoclonal Ab of β-tubulin was obtained from Sigma. Horseradish peroxidase-linked Abs of sheep anti-mouse IgG and donkey anti-rabbit IgG were obtained from Amersham Biosciences.
Samples were extracted with buffer containing 1% Triton X-100, 150 mM NaCl, 50 mM Tris (pH 7.5), and 1 mM phenylmethylsulfonyl fluoride (Roche Applied Science) and were subjected to SDS-PAGE with 30 μg of general protein loading into each lane on a 10% polyacrylamide gel. Electrophoretic transfer to nitrocellulose membranes (Amersham Biosciences) was followed by immunoblotting. The signal was detected by using an ECL detection system (Amersham Biosciences).

[3] = tested on: LN-18, U-87MG, and MG-328 glioma cells; assay: Cell viability assay (Ann/PI staining, FACS) with TRAIL
Description: as §1

[4] = tested on: caspase-3, -8, and -9; assay: Caspase activity assay in U-87MG treated with VP16 or Taxol; conditions: PTPI 50 μM and TG 30 μM for 24 h, then VP16 10 μM or Taxol 5 μM
Description: (§3) Activity of caspase-3, -8, and -9 was measured using caspase-3/CPP32, FLICE/caspase-8, and APOPCYTO/caspase-9 […] assay kits, respectively, from Medical and Biological Laboratories Co. (Nagoya, Japan). Briefly, the treatment of cells with TG, GW, and/or PTPI for 24 h was followed by treatment with rTRAIL, VP 16 or Taxol. After 2 h (24 h) of treatment, all the cells were harvested, and samples were extracted with Cell Lysis Buffer. Concurrently, a sample for a negative control was extracted from the cells without apoptosis induction. A standard curve using the absorbance of p-nitroanilide standards was constructed, and then the specific activities on each sample were calculated according to the manufacturer's protocol.
as §2

[5] = tested on: caspase-3, -8, and -9; assay: Caspase activity assay in TRAIL-treated glioma cells
Description: as §3

[6] = tested on: STAT3 mRNA; assay: Real time quantitative RT-PCR; conditions: LN-18; STAT3-siRNA 50-600 pmol; 24 h after transfection; dose-dependent
Description: DNA amplification was performed using an […] […] ID NO: 3), STAT3 reverse, [NT] ID NO: 4); and β-actin forward, [NT] ID NO: 5), β-actin reverse, [NT] ID NO: 6).

[7] = tested on: LN-18; assay: Annexin V apoptosis detection (FACS) after TRAIL treatment; conditions: TRAIL 300 ng/ml
Description: […] An annexin V-fluorescein isothiocyanate apoptosis detection kit I (Pharmingen) was used for viability assay of the cells. Cells were stained with annexin V-fluorescein isothiocyanate (Ann) and propidium iodide (PI) according to the manufacturer's protocol and were analyzed by FACS (Pharmingen). Cells that stained negative for both Ann and PI were defined as viable cells for viability assay.
To examine the mechanism that causes resistance to TRAIL, glioma cell lines were used that are partially resistant to TRAIL despite their expression of DR4 and/or DR5. Western blot was used to detect the expression levels of DR4 and DR5 in LN-18, U-87MG, and MG-328 (FIG. 1A). The cytotoxic activity of TRAIL (18.75-300 ng/ml) was examined in each glioma (FIGS. 1, B and C). […] These findings indicate that these gliomas can acquire a resistance to TRAIL despite their expression of functionally intact DR4/5.

[8] = SHPI 200 μM and TG 30 μM, then rTRAIL (not shown)
[9] = STAT3-siRNA-transfected glioma cells

Molecule: Cc1c(C)c2c(c(C)c1O)CCC(C)(COc1ccc(CC3SC(=O)NC3=O)cc1)O2 (centres unmarked) [TG, troglitazone]
- effect on the cytotoxic activity of Taxol (cell viability) ([1]; U-87MG, TG 30 μM for 24 h, then Taxol 0.005-5 μM for 48 h): positive activities
- effect on the cytotoxic activity of VP16 (cell viability) ([1]; U-87MG, TG 30 μM for 24 h, then VP16 0.01-10 μM for 48 h): positive activities
- time at which down-regulation of pY705-STAT3 was noticeable ([2]; TG 30 μM): 8 h
- STAT3 expression levels ([2]; TG 30 μM, LN-18, U-87MG, MG-328): no effect
- time at which 42 kDa PTP1B expression reached maximum levels ([2]; TG 30 μM, all gliomas): 16 to 32 h
- time of start of up-regulation of the activated form of PTP1B (42 kDa) after treatment ([2]; TG 30 μM, all gliomas): ≤ 4 h
- effect on the cytotoxic activity of TRAIL ([3]; TG 30 μM for 24 h, then rTRAIL 100 ng/ml for 24 h, LN-18, U-87MG and MG-328): significantly enhance

Molecule: CC(=O)O[C@H]1C(=O)[C@@]2(C)[C@H]([C@H](OC(=O)c3ccccc3)[C@]3(O)C[C@H](OC(=O)[C@H](O)[C@@H](NC(=O)c4ccccc4)c4ccccc4)C(C)=C1C3(C)C)[C@]1(OC(C)=O)CO[C@@H]1C[C@@H]2O [Taxol, paclitaxel]
- proliferation of cells in the control group (no TG or PTPI) ([1]; Taxol 5 μM): maintained an ability to proliferate

Molecule: O=C(CBr)c1ccc(O)cc1 [PTPI, α-bromo-4-hydroxyacetophenone]
- inhibition of the cytotoxic activity in TG-treated cells with VP16 or Taxol ([1]; U-87MG, PTPI 50 μM and TG 30 μM for 24 h, then VP16 or Taxol): limited effect
- effect on the inhibitory effect of TG on pY705-STAT3 ([2]; PTPI 50 μM and TG 30 μM for 24 h): abrogated
- effect on the upregulation of pS392-p53 caused by TG ([2]; PTPI 50 μM and TG 30 μM for 24 h, LN-18 and U-87MG): did not inhibit
- effect on the effect of TG on the activity of caspase-8 and -9 [4]: completely abrogated
- inhibition of caspase-3 activity in TG-treated cells with VP16 or Taxol [4]: limited effect
- effect on the effect of TG on TRAIL (cell viability) ([3]; PTPI 50 μM and TG 30 μM, then rTRAIL 100 ng/ml (not shown)): abrogated
- effect on the effect of TG on TRAIL (caspase activity) ([5]; PTPI 50 μM and TG 30 μM, then rTRAIL 100 ng/ml for 2 h): abrogated

Molecule: O=C(Nc1ccccc1)c1cc([N+](=O)[O-])ccc1Cl [GW, GW9662]
- pY705-STAT3 expression in cells treated with TG and GW ([2]; GW 20 μM and TG 30 μM for 24 h): down-regulation of pY705-STAT3 was observed
- effect on the up-regulation of pS392-p53 induced by TG ([2]; GW 20 μM and TG 30 μM for 24 h, LN-18 and U-87MG): abrogated
- effect on the up-regulation of Bax found in TG-treated cells ([2]; GW 20 μM and TG 30 μM for 24 h, U-87MG): inhibited
- effect on the activity of TG in TRAIL-treated glioma cells (cell viability) ([3]; GW 20 μM and TG 30 μM for 24 h, then rTRAIL 100 ng/ml for 24 h): not blocked
- effect on the specific activities of caspases in TG/TRAIL-treated cells ([5]; GW 20 μM and TG 30 μM for 24 h, then rTRAIL 100 ng/ml for 2 h): did not reduce

Molecule: COc1cc([C@@H]2c3cc4c(cc3[C@@H](O[C@@H]3O[C@@H]5CO[C@@H](C)O[C@H]5[C@H](O)[C@H]3O)[C@H]3COC(=O)[C@H]23)OCO4)cc(OC)c1O [VP16, Etoposide]
- proliferation of cells in the control group (no TG or PTPI) ([1]; VP16 10 μM): maintained an ability to proliferate

Molecule: O=C(O)COc1ccc(C(=O)CBr)cc1 [SHPI, α-bromo-4-carboxymethoxyacetophenone]
- effect on the downregulation of pY705-STAT3 induced by TG ([2]; SHPI 200 μM and TG 30 μM for 24 h): did not inhibit
- effect on the effect of TG on TRAIL (cell viability) [3, 8]: did not abrogate
- effect on the effect of TG on TRAIL (caspase activity) [5, 8]: did not abrogate

Molecule: STAT3-siRNA: double-stranded siRNA oligonucleotide against STAT3 (SEQ ID NO: 1 and 2), Dharmacon (chain 1 AACAUCUGCCUAGAUCGGCUATT; chain 2 UAGCGGAUCUAGGCAGAUG; chain 1: sugars from the 5' end r21 d2, backbone not given here; chain 2: RNA, 3' dTdT, backbone not given here)
- STAT3 mRNA expression [6]: decreased
- STAT3 protein expression ([2]; LN-18, STAT3-siRNA 50-600 pmol, 24 h after transfection, dose-dependent): decreased
- Bax expression levels [2, 9]: not altered
- FLIP and Bcl-2 expression levels [2, 9]: decreased
- pY705-STAT3 expression [2, 9]: down-regulated
- effect on the cytotoxic effect of TRAIL ([3]; STAT3-siRNA 600 pmol, then TRAIL 100 ng/ml for 24 h): significantly enhanced
- apoptotic death of glioma cells, agent alone ([3]; STAT3-siRNA 600 pmol, without rTRAIL): did not induce their apoptotic death
- specific activities of caspases-3, -8, and -9 ([5]; STAT3-siRNA 600 pmol, then TRAIL 100 ng/ml for 2 h): significantly increased
- inhibitory effect of PTPI on TG in transfected glioma cells (caspase activity) ([5]; STAT3-siRNA 600 pmol, cells treated with TG, PTPI and TRAIL): negated

B1: TRAIL: Recombinant human tumor necrosis factor-related apoptosis-inducing ligand, obtained from Pepro-Tech (protein, UniProt P50591 1-281, looked up)
Tumor necrosis factor ligand …: MAMMEVQGGPSLGQTCVLIVIFTVLLQSLCVAVTYVYFTNELKQMQDKYSKSGIACFLKEDDSYWDPNDEESMNSPCWQVKWQLRQLVRKMILRTSEETISTVQEKQQNISPLVRERGPQRVAAHITGTRGRSNTLSSPNSKNEKALGRKINSWESSRSGHSFLSNLHLRNGELVIHEKGFYYIYSQTYFRFQEEIKENTKNDKQMVQYIYKYTSYPDPILLMKSARNSCWSKDAEYGLYSIYQGGIFELKENDRIFVSVTNEHLIDMDHEASFFGAFLVG
- cell death ([3]; 300 ng/ml TRAIL, after 24 h of treatment, LN-18, U-87MG, MG-328): 40-60%
- cells killed by TRAIL in the STAT3-siRNA-transfected group ([3]; TRAIL 100 ng/ml, 72-h cell culture, each glioma (not shown)): more than 95%
- proliferative ability of the viable cells ([3]; after 72 h of cell culture with 300 ng/ml TRAIL (not shown)): maintained a proliferative ability
- percentage of Ann(+) PI(−) cells (early stage of apoptosis) ([7]; after 2 h of treatment): 33.7%
- percentage of Ann(+) PI(−) cells (early stage of apoptosis) ([7]; after 24 h of treatment): 60.1%
